Among the data in PubChem BioAssay AID280 (DTP/NCI, 2004) are T/C values, retold here.

Where “and” joins values, the source holds several entries; their conditions need not be identical. Equal values may be shown once. Toxic doses and inconclusive results are not listed.

This assay concerns nude mice, LOX melanoma ip, survival T/C. Nature of the assay: NCI In Vivo Anticancer Drug Screen. Data for tumor model Human Amelanotic Melanoma (LOX) (intraperitoneal) in NU/NU BALB/C (nude) mice. To be noted: endpoint: median survival time, higher = longer survival. The protocol: The antitumor activity of compounds was measured in mice bearing transplantable tumors. Survival or tumor size were measured and the results are expressed as the measurement made in the treated group (T) divided by the measurement made in the vehicle treated control group (C). The tumor model used in this assay is Human Amelanotic Melanoma (LOX) (intraperitoneal) in NU/NU BALB/C (nude) mice

Setting [1] is: dose: 6.25 mg/kg/injection, schedule: Q04DX003 (ip), vehicle: water.
Where [2] appears, read: dose: 12.5 mg/kg/injection, schedule: Q04DX003 (ip), vehicle: water.
Where [3] appears, read: dose: 25.0 mg/kg/injection, schedule: Q04DX003 (ip), vehicle: water.
The mark [4] stands for this setting: dose: 50.0 mg/kg/injection, schedule: Q04DX003 (ip), vehicle: water.
Where [5] appears, read: dose: 150.0 mg/kg/injection, schedule: Q04DX003 (ip), vehicle: saline with Tween-80.
Setting [6] is: dose: 75.0 mg/kg/injection, schedule: Q04DX003 (ip), vehicle: saline with Tween-80.
Where [7] appears, read: dose: 300.0 mg/kg/injection, schedule: Q04DX003 (ip), vehicle: saline with Tween-80.
Where [8] appears, read: dose: 600.0 mg/kg/injection, schedule: Q04DX003 (ip), vehicle: saline with Tween-80.
The mark [9] stands for this setting: dose: 50.0 mg/kg/injection, schedule: Q04DX003 (ip), vehicle: saline with Tween-80.
[10] abbreviates: dose: 100.0 mg/kg/injection, schedule: Q04DX003 (ip), vehicle: saline with Tween-80.
[11] abbreviates: dose: 200.0 mg/kg/injection, schedule: Q04DX003 (ip), vehicle: saline with Tween-80.

`O=C(O)c1cc(C(=O)O)c(C(=O)O)cc1C(=O)O.[NH2-].[NH2-].[NH2-].[NH2-].[Pt+2].[Pt+2]`: the T/C is 89 % of control under setting [1], 104 % of control under setting [2], 115 % of control under setting [3] and 115 % of control under setting [4].
Turning to `COc1cccc2c1C(=O)c1c(O)c3c(c(O)c1C2=O)C[C@@](O)(C(=O)CO)C[C@@H]3OC1CC(N)C(O)C(C)O1` (stereo not given in full), the T/C (dose: 0.25 mg/kg/injection, schedule: Q01DX015 (ip), vehicle: water) was 162 % of control; the T/C (dose: 0.5 mg/kg/injection, schedule: Q01DX015 (ip), vehicle: water) was 167 % of control; the T/C (dose: 1.0 mg/kg/injection, schedule: Q01DX005 (ip), vehicle: water) was 208 % of control; the T/C (dose: 1.0 mg/kg/injection, schedule: Q01DX015 (ip), vehicle: water) was 152 % of control; the T/C (dose: 1.0 mg/kg/injection, schedule: Q04DX003 (ip), vehicle: water) is 270 % of control; the T/C (dose: 2.0 mg/kg/injection, schedule: Q01DX001 (ip), vehicle: water) is 197 % of control. Besides, the T/C by setting is: (dose: 2.0 mg/kg/injection, schedule: Q04DX003 (ip), vehicle: water) 203 % of control; (dose: 4.0 mg/kg/injection, schedule: Q01DX001 (ip), vehicle: water) 240 % of control; (dose: 4.0 mg/kg/injection, schedule: Q04DX003 (ip), vehicle: saline) 107 % of control; (dose: 4.0 mg/kg/injection, schedule: Q04DX003 (ip), vehicle: water) 151 % of control; (dose: 4.0 mg/kg/injection, schedule: Q04DX003 (iv), vehicle: saline) 158 % of control; (dose: 8.0 mg/kg/injection, schedule: Q04DX003 (ip), vehicle: saline) 122 % of control. Also, the T/C reads like this: (dose: 8.0 mg/kg/injection, schedule: Q04DX003 (iv), vehicle: saline) 275 % of control; (dose: 16.0 mg/kg/injection, schedule: Q04DX003 (ip), vehicle: saline) 101 % of control.
For the compound `COc1cc2c[n+](C)c3c(c2cc1OC)Cc1cc2c(cc1-3)OCO2`, the T/C is 108 % of control (dose: 18.75 mg/kg/injection, schedule: Q04DX003 (ip), vehicle: saline with Tween-80) and 201 % of control under setting [5].
Consider `[N-]=[N+]=[N-]`, for which the T/C was 99 % of control (dose: 1.5 mg/kg/injection, schedule: Q04DX003 (ip), vehicle: water); 104 % of control (dose: 3.0 mg/kg/injection, schedule: Q04DX003 (ip), vehicle: water); 89 % of control (dose: 12.0 mg/kg/injection, schedule: Q04DX003 (ip), vehicle: water); 104 % of control (dose: 24.0 mg/kg/injection, schedule: Q04DX003 (ip), vehicle: water).
In the case of `CCS/C(SC)=C(/c1ccccc1)[P+](c1ccccc1)(c1ccccc1)c1ccccc1`, the T/C is 106 % of control (dose: 0.81 mg/kg/injection, schedule: Q04DX003 (ip), vehicle: Klucel (hydroxypropylcellulose) (HPC)); 106 % of control (dose: 1.35 mg/kg/injection, schedule: Q04DX003 (ip), vehicle: Klucel (hydroxypropylcellulose) (HPC)); 118 % of control (dose: 2.25 mg/kg/injection, schedule: Q04DX003 (ip), vehicle: Klucel (hydroxypropylcellulose) (HPC)); 95 % of control (dose: 3.12 mg/kg/injection, schedule: Q04DX003 (ip), vehicle: Klucel (hydroxypropylcellulose) (HPC)); 100 % of control (dose: 3.76 mg/kg/injection, schedule: Q04DX003 (ip), vehicle: Klucel (hydroxypropylcellulose) (HPC)); 94 % of control (dose: 6.25 mg/kg/injection, schedule: Q04DX003 (ip), vehicle: Klucel (hydroxypropylcellulose) (HPC)).
On to `O=C(Nc1cc(Cl)ccc1C(=O)O)c1cccc(C[n+]2ccccc2)c1`, for which the T/C is, setting by setting: (dose: 37.5 mg/kg/injection, schedule: Q04DX003 (ip), vehicle: saline with Tween-80) 94 % of control and 100 % of control; under setting [6], 105 % of control and 90 % of control; under setting [7], 89 % of control.
Regarding `O=C1C(=O)c2cccnc2-c2ncccc21`, the T/C (dose: 2.5 mg/kg/injection, schedule: Q04DX003 (ip), vehicle: Klucel (hydroxypropylcellulose) (HPC)) was 94 % of control and the T/C (dose: 5.0 mg/kg/injection, schedule: Q04DX003 (ip), vehicle: Klucel (hydroxypropylcellulose) (HPC)) was 101 % of control.
In the case of `CC#CCOCC(O)CCl` (stereo not given), the T/C is, setting by setting: (dose: 37.5 mg/kg/injection, schedule: Q04DX003 (ip), vehicle: saline) 97 % of control; (dose: 75.0 mg/kg/injection, schedule: Q04DX003 (ip), vehicle: saline) 99 % of control; (dose: 150.0 mg/kg/injection, schedule: Q04DX003 (ip), vehicle: saline) 102 % of control; (dose: 300.0 mg/kg/injection, schedule: Q04DX003 (ip), vehicle: saline) 106 % of control; (dose: 600.0 mg/kg/injection, schedule: Q04DX003 (ip), vehicle: saline) 110 % of control.
`CC1=NN(c2cccc(S(=O)(=O)O)c2)C(=O)C1N=Nc1cc(Cl)cc(S(=O)(=O)O)c1O.CC1=NN(c2cccc(S(=O)(=O)O)c2)C(=O)C1N=Nc1cc(Cl)cc(S(=O)(=O)O)c1O.[Cr]` (stereo not given): the T/C (dose: 75.0 mg/kg/injection, schedule: Q04DX003 (ip), vehicle: suspension in saline) was 97 % of control; the T/C (dose: 150.0 mg/kg/injection, schedule: Q04DX003 (ip), vehicle: suspension in saline) was 94 % of control; the T/C (dose: 300.0 mg/kg/injection, schedule: Q04DX003 (ip), vehicle: suspension in saline) was 87 % of control.
`O=NNc1cccnc1`: the T/C was 100 % of control and 101 % of control under setting [1]; 109 % of control and 101 % of control under setting [2]; 113 % of control and 98 % of control under setting [3]; 114 % of control and 96 % of control under setting [4]; 103 % of control and 117 % of control (dose: 100.0 mg/kg/injection, schedule: Q04DX003 (ip), vehicle: water).
In the case of `Nc1ccc2ccc(NS(=O)(=O)N3CCCCC3)cc2c1`, the T/C under setting [7] is 154 % of control and the T/C under setting [8] was 96 % of control.
For the compound `S=C(NCNC(=S)c1ccncc1)c1ccncc1`, the T/C is, setting by setting: under setting [6], 104 % of control; under setting [5], 103 % of control; under setting [7], 106 % of control; under setting [8], 87 % of control.
`NC(=O)c1[nH]cnc1O`: the T/C reads like this: under setting [9], 95 % of control and 98 % of control; under setting [10], 116 % of control and 100 % of control; under setting [11], 104 % of control and 111 % of control; (dose: 400.0 mg/kg/injection, schedule: Q04DX003 (ip), vehicle: saline with Tween-80) 96 % of control; (dose: 800.0 mg/kg/injection, schedule: Q04DX003 (ip), vehicle: saline with Tween-80) 88 % of control.
Turning to `Cc1ccc(C(=O)NC2C(=O)NC(C(C)C)C(=O)N3CCCC3C(=O)N(C)CC(=O)N(C)C(C(C)C)C(=O)OC2C)c2c1Oc1c(c(C(=O)NC3C(=O)NC(C(C)C)C(=O)N4CCCC4C(=O)N(C)CC(=O)N(C)C(C(C)C)C(=O)OC3C)c3nc(-c4ccccc4)c(=O)oc3c1C)N2` (stereo not given), the T/C is 159 % of control (dose: 0.25 mg/kg/injection, schedule: Q04DX003 (ip), vehicle: saline with Tween-80); 161 % of control (dose: 0.5 mg/kg/injection, schedule: Q04DX003 (ip), vehicle: saline with Tween-80); 224 % of control (dose: 1.0 mg/kg/injection, schedule: Q04DX003 (ip), vehicle: saline with Tween-80); 295 % of control (dose: 2.0 mg/kg/injection, schedule: Q04DX003 (ip), vehicle: saline with Tween-80); 301 % of control (dose: 4.0 mg/kg/injection, schedule: Q04DX003 (ip), vehicle: saline with Tween-80).
With `Cc1ccc(NN=O)nc1`, the T/C (dose: 2.5 mg/kg/injection, schedule: Q04DX003 (ip), vehicle: water) is 105 % of control; the T/C (dose: 5.0 mg/kg/injection, schedule: Q04DX003 (ip), vehicle: water) is 114 % of control; the T/C (dose: 10.0 mg/kg/injection, schedule: Q04DX003 (ip), vehicle: water) was 115 % of control.
With `NC(=O)C1C=CN(Cc2ccccc2)C=C1`, the T/C reads like this: under setting [9], 112 % of control; under setting [10], 117 % of control; under setting [11], 123 % of control.
